Assay results as given in US20200181121A1, “Cocrystal of Telmisartan and Hydrochlorothiazide” (SHANGHAI INSTITUTE OF MATERIA MEDICA, CHINESE ACADEMY OF …, priority 2017, published 2020).

Experiment: Accelerated stability test (ICH Q1E), change of the content
Format: physicochemical
Conditions: 40°C±2°C, RH 75±5%, polyethylene-sealed bag
Description: According to the description in “Stability Data Evaluation” of ICH guidelines Q1E, a comparison of accelerated stability test (at 40° C.±2° C., RH 75±5%) of cocrystal of hydrochlorothiazide and telmisartan obtained in Example 1 with that of telmisartan or hydrochlorothiazide itself was conducted respectively. The cocrystal of telmisartan and hydrochlorothiazide, telmisartan, and hydrochlorothiazide were double packaged using the polyethylene-sealed bag respectively, stood for 1, 2 or 3 months under the accelerated stability test conditions (at 40° C.±2° C., RH 75±5%). Then the samples were taken and measured for the change of the content.

NS(=O)(=O)c1cc2c(cc1Cl)NCNS2(=O)=O [Hydrochlorothiazide, 6-chloro-3,4-dihydro-2H-1,2,4-benzothiadiazine-7-sulfonamido-1,1-dioxide]
content of hydrochlorothiazide (0 month): 100% | content of hydrochlorothiazide (1 month): 97.37% | content of hydrochlorothiazide (2 months): 96.34% | content of hydrochlorothiazide (3 months): 95.28%

CCCc1nc2c(C)cc(-c3nc4ccccc4n3C)cc2n1Cc1ccc(-c2ccccc2C(=O)O)cc1 [Telmisartan, 4′-[[2-propyl-4-methyl-6(1-methyl-benzimidazol-2-yl)-benzimidazol-1-yl]methyl]-2-biphenylcarboxylic acid]
content of telmisartan (0 month): 100% | content of telmisartan (1 month): 97.28% | content of telmisartan (2 months): 94.47% | content of telmisartan (3 months): 94.20%
